Results taken from paper PMC10518257 (Nature Cancer, 2023).
Several values for one entry are separate records, joined by “and”; a condition that tells them apart may be missing. Identical values can stand only once. Like-named read-outs stand apart in the source and are kept apart here.

How the values were obtained:
LUAD-0087AS2 cells = experiment: Growth inhibition (alamarBlue, 96 h); format: cell-based, human; settings: for raw viability signal (Source Data Fig. 3b-c): LUAD-0087AS2, replicate sets
TT cells = experiment: Growth inhibition (alamarBlue, 96 h); format: cell-based, human; settings: for raw viability signal (Source Data Fig. 3b-c): replicate sets
Ba/F3 cells = experiment: Growth inhibition assay in Ba/F3 cells (CellTiter-Glo, 72 h); format: cell-based
LC-2/ad cells = experiment: Growth inhibition (alamarBlue, 96 h); format: cell-based, human; settings: for raw viability signal (Source Data Fig. 3b-c): LC-2/Ad, replicate sets
[1] = Animal weight of tumor-bearing mice
Ba/F3-RET^M918T = experiment: Growth inhibition assay in Ba/F3 cells (CellTiter-Glo, 72 h); format: cell-based; settings: Mus musculus, BaF3, 72 h, Ba/F3-RET^M918T, CellTiter-Glo, 72 h; read-out: GI50 value (Mean ± SD)

COc1cc2c(Nc3ccc(Br)cc3F)ncnc2cc1OCC1CCN(C)CC1 [Vandetanib]
IC50 (LUAD-0087AS2 cells; Homo sapiens, read-out: IC50 for Inhibition of Growth (95% CI), LUAD-0087AS2, alamarBlue, 96 h): 264 nM
raw viability signal (Source Data Fig. 3b-c) (LUAD-0087AS2 cells; 0.01 nM): 12332.1 and 13934.5 and 13930.1
raw viability signal (Source Data Fig. 3b-c) (LUAD-0087AS2 cells; 0.1 nM): 10316.9 and 14234.5 and 13979.9
raw viability signal (Source Data Fig. 3b-c) (LUAD-0087AS2 cells; 1 nM): 14707.2 and 14551.9 and 13357
raw viability signal (Source Data Fig. 3b-c) (LUAD-0087AS2 cells; 10 nM): 9639.26 and 14042.7
raw viability signal (Source Data Fig. 3b-c) (LUAD-0087AS2 cells; 100 nM): 8268.62 and 14329.9 and 11925.1
raw viability signal (Source Data Fig. 3b-c) (LUAD-0087AS2 cells; 1000 nM): 3107.74 and 4188.25 and 2159.6 and 1975.84
raw viability signal (Source Data Fig. 3b-c) (LUAD-0087AS2 cells; 10000 nM): 1739.1 and 865.962 and 878.418 and 892.669
raw viability signal (Source Data Fig. 3b-c) (TT cells; 0.01 nM): 24130.4 and 28596.3 and 33849.7 and 15452.6
raw viability signal (Source Data Fig. 3b-c) (TT cells; 0.1 nM): 23355.5 and 28594.1 and 36565.2
raw viability signal (Source Data Fig. 3b-c) (TT cells; 1 nM): 22374.7 and 27607.6 and 35010.1 and 13701.7
raw viability signal (Source Data Fig. 3b-c) (TT cells; 10 nM): 16858.1 and 26132.6 and 31759.9 and 13240.5 and 11997.4
raw viability signal (Source Data Fig. 3b-c) (TT cells; 100 nM): 9840.2 and 25256.2 and 32238.5 and 11048.8 and 6020.05
raw viability signal (Source Data Fig. 3b-c) (TT cells; 1000 nM): 9436.58 and 12629.1 and 19662.7 and 4747.88 and 2242.82
raw viability signal (Source Data Fig. 3b-c) (TT cells; 10000 nM): 6954.01 and 10117.3 and 4217.75 and 1470.42
IC50 (TT cells; Homo sapiens, read-out: IC50 for Inhibition of Growth (95% CI), alamarBlue, 96 h): 90 nM
GI50 (Ba/F3 cells; Ba/F3 (parental), replicate Sets 1-3, read-out: GI50): 7.33 µM and 9.12 µM
GI50 (Ba/F3 cells; Mus musculus, BaF3, 72 h, Ba/F3, CellTiter-Glo, 72 h, read-out: GI50 value (Mean ± SD)): 7.49 µM
GI50 (Ba/F3 cells; Mus musculus, BaF3, Ba/F3 (parental), replicate Sets 1-3, read-out: GI50): 6.02 µM
IC50 (LC-2/ad cells; Homo sapiens, read-out: IC50 for Inhibition of Growth (95% CI), LC-2/ad, alamarBlue, 96 h): 61 nM
raw viability signal (Source Data Fig. 3b-c) (LC-2/ad cells; 0.01 nM): 12607.4 and 20233.4
raw viability signal (Source Data Fig. 3b-c) (LC-2/ad cells; 0.1 nM): 13108.5 and 20488.5
raw viability signal (Source Data Fig. 3b-c) (LC-2/ad cells; 1 nM): 11956.2 and 19814.6
raw viability signal (Source Data Fig. 3b-c) (LC-2/ad cells; 10 nM): 11578.8 and 17158.6
raw viability signal (Source Data Fig. 3b-c) (LC-2/ad cells; 100 nM): 4528.4 and 9691.17
raw viability signal (Source Data Fig. 3b-c) (LC-2/ad cells; 1000 nM): 1439.52 and 1771.38
raw viability signal (Source Data Fig. 3b-c) (LC-2/ad cells; 10000 nM): 850.396
Animal Weight ([1]; ECLC5B xenograft, P = 0.01, animals killed early): significant weight loss
Animal Weight ([1]; ECLC5 Xenografts, 100 mg/kg QD, treatment day 7, individual animals, 100 mg/kg): 26 g and 24 g and 22 g (3×)
Animal Weight ([1]; ECLC5 Xenografts, 100 mg/kg QD, treatment day 11, individual animals, 100 mg/kg): 25 g and 23 g and 22 g (3×)
Animal Weight ([1]; ECLC5 Xenografts, 100 mg/kg QD, treatment day 14, individual animals, 100 mg/kg): 24 g and 22 g (2×) and 21 g (2×)
Animal Weight ([1]; ECLC5 Xenografts, 100 mg/kg QD, treatment day 19, individual animals, 100 mg/kg): 22 g (2×) and 21 g (3×)
Animal Weight ([1]; ECLC5 Xenografts, 100 mg/kg QD, treatment day 22, individual animals): 20 g
Animal Weight ([1]; ECLC5 Xenografts, 100 mg/kg QD, treatment day 25, individual animals): 20 g
Animal Weight ([1]; LUAD-0057AS1 PDX, 50 mg per kg QD, P = 0.0015): significant reduction in animal weight
Animal Weight ([1]; LUAD-0057AS1 PDX, 50 mg/kg QD, treatment day 0, individual animals, 50 mg/kg): 24 g (3×) and 23 g (3×) and 25 g (2×)
Animal Weight ([1]; LUAD-0057AS1 PDX, 50 mg/kg QD, treatment day 3, individual animals, 50 mg/kg): 21 g (6×) and 22 g and 23 g
Animal Weight ([1]; LUAD-0057AS1 PDX, 50 mg/kg QD, treatment day 7, individual animals, 50 mg/kg): 21 g (3×) and 23 g and 22 g (3×) and 20 g
Animal Weight ([1]; LUAD-0057AS1 PDX, 50 mg/kg QD, treatment day 10, individual animals, 50 mg/kg): 20 g (2×) and 22 g (2×) and 21 g (4×)
Animal Weight ([1]; LUAD-0057AS1 PDX, 50 mg/kg QD, treatment day 14, individual animals, 50 mg/kg): 20 g (2×) and 21 g (6×)
Animal Weight ([1]; LUAD-0057AS1 PDX, 50 mg/kg QD, treatment day 19, individual animals, 50 mg/kg): 20 g (4×) and 19 g (2×) and 21 g (2×)
Animal Weight ([1]; LUAD-0057AS1 PDX, 50 mg/kg QD, treatment day 23, individual animals, 50 mg/kg): 19 g and 20 g
Animal Weight ([1]; NIH-3T3-CCDC6::RET xenografts, 100 mg/kg QD, day 0, 100 mg/kg): 22 g and 26 g and 24 g and 21 g and 20 g
Animal Weight ([1]; NIH-3T3-CCDC6::RET xenografts, 100 mg/kg QD, day 2, 100 mg/kg): 22 g and 23 g and 21 g and 19 g
Animal Weight ([1]; NIH-3T3-CCDC6::RET xenografts, 100 mg/kg QD, day 5, 100 mg/kg): 22 g and 26 g and 24 g and 20 g
Animal Weight ([1]; NIH-3T3-CCDC6::RET xenografts, 100 mg/kg QD, day 8, 100 mg/kg): 22 g and 25 g and 23 g and 21 g and 19 g
GI50 (Ba/F3-RET^M918T): 39.9 ± 15.2 nM
